Data published in patent US9802920B2, “Inhibitors of bruton's tyrosine kinase” (HOFFMANN-LA ROCHE INC., priority 2013, dated 2017).

The compounds below were run against Btk enzyme (His-tagged, full-length) (Homo sapiens (Human), UniProt Q06187) (assay: Bruton's Tyrosine Kinase (Btk) Inhibition Assay, radioactive 33P filtration capture). Conditions: 100 μM ATP, 30 μM peptide substrate; read-out: Radiometric IC50.
Assay type: biochemical
Text: Bruton's Tyrosine Kinase (Btk) Inhibition Assay
The assay is a capture of radioactive ^33P phosphorylated product through filtration. The interactions of Btk, biotinylated SH2 peptide substrate (Src homology), and ATP lead to phosphorylation of the peptide substrate. Biotinylated product is bound streptavidin sepharose beads. All bound, radiolabeled products are detected by scintillation counter.
Plates assayed are 96-well polypropylene (Greiner) and 96-well 1.2 μm hydrophilic PVDF filter plates (Millipore). Concentrations reported here are final assay concentrations: 10-100 μM compounds in DMSO (Burdick and Jackson), 5-10 nM Btk enzyme (His-tagged, full-length), 30 μM peptide substrate (Biotin-Aca-[…]-NH2), 100 μM ATP (Sigma), 8 mM imidazole (Sigma, pH 7.2), 8 mM glycerol-2-phosphate (Sigma), 200 μM EGTA (Roche Diagnostics), 1 mM MnCl2 (Sigma), 20 mM mgCl2 (Sigma), 0.1 mg/mL BSA (Sigma), 2 mM DTT (Sigma), 1 μCi ^33P ATP (Amersham), 20% streptavidin sepharose beads (Amersham), 50 mM EDTA (Gibco), 2 M NaCl (Gibco), 2 M NaCl w/1% phosphoric acid (Gibco), microscint-20 (Perkin Elmer).
IC50 determinations are calculated from 10 data points per compound utilizing data produced from a standard 96-well plate assay template. One control compound and seven unknown inhibitors were tested on each plate and each plate was run twice. Typically, compounds were diluted in half-log starting at 100 μM and ending at 3 nM. The control compound was staurosporine. Background was counted in the absence of peptide substrate. Total activity was determined in the presence of peptide substrate. The following protocol was used to determine Btk inhibition.
Sample preparation: The test compounds were diluted at half-log increments in assay buffer (imidazole, glycerol-2-phosphate, EGTA, MnCl2, mgCl2, BSA).
1) Rinse beads by centrifuging at 500 g
2) Reconstitute the beads with PBS and EDTA to produce a 20% bead slurry
3) Pre-incubate reaction mix without substrate (assay buffer, DTT, ATP, ^33P ATP) and mix with substrate (assay buffer, DTT, ATP, ^33P ATP, peptide substrate) 30° C. for 15 min.
4) To start assay, pre-incubate 10 μL Btk in enzyme buffer (imidazole, glycerol-2-phosphate, BSA) and 10 μL of test compounds for 10 min at RT.
5) Add 30 μL reaction mixture without or with substrate to Btk and compounds.
6) Incubate 50 μL total assay mix for 30 min at 30° C.
7) Transfer 40 μL of assay to 150 μL bead slurry in filter plate to stop reaction.
8) Wash filter plate after 30 min, with following steps
3×250 μL NaCl containing 1% phosphoric acid
9) Dry plate for 1 h at 65° C. or overnight at RT
10) Add 50 μL microscint-20 and count ^33P cpm on scintillation counter. […]

Chain of Btk enzyme (His-tagged, full-length) (Q06187 whole entry): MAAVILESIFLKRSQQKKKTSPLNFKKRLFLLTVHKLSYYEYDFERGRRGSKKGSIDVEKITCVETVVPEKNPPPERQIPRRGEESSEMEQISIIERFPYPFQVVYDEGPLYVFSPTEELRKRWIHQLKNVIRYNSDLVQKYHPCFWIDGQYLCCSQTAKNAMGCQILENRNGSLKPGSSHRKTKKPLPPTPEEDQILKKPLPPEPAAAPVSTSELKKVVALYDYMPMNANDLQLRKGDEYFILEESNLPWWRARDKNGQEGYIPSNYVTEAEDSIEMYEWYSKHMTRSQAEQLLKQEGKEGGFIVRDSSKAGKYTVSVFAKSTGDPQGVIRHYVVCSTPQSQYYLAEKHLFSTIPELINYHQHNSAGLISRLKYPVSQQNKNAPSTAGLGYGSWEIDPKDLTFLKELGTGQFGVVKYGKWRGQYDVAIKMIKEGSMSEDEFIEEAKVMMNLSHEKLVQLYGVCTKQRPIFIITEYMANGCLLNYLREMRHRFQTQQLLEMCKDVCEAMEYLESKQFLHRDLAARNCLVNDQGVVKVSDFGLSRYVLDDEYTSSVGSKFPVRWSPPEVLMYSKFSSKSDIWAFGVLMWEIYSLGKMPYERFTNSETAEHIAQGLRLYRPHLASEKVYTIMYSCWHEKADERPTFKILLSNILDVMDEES

First: Nc1c(C(=O)c2cc3ccccc3[nH]2)cnn1-c1ccc(Oc2ccccn2)cc1 [Compound I-3, {5-Amino-1-[4-(pyridin-2-yloxy)-phenyl]-1H-pyrazol-4-yl}-(1H-indol-2-yl)-methanone]
Second: Nc1c(C(=O)c2cc3ccccc3[nH]2)cnn1-c1ccc(Oc2cccnc2)cc1 [Compound I-4, {5-Amino-1-[4-(pyridin-3-yloxy)-phenyl]-1H-pyrazol-4-yl}-(1H-indol-2-yl)-methanone]
The IC50 of the first is 44-fold lower: 502 nM for the first, 22000 nM for the second.

Compared with `CC(C)Oc1ccc(-n2ncc(C(=O)c3cc4ccccc4[nH]3)c2N)cc1` [Compound I-11, [5-Amino-1-(4-isopropoxy-phenyl)-1H-pyrazol-4-yl]-(1H-indol-2-yl)-methanone], `Nc1c(C(=O)c2cc3ccccc3[nH]2)cnn1-c1ccc(Oc2ccccc2)nc1` [Compound I-2, [5-Amino-1-(6-phenoxy-pyridin-3-yl)-1H-pyrazol-4-yl]-(1H-indol-2-yl)-methanone] is 85-fold lower in IC50: 73800 nM for the first, 869 nM for the second.

These compounds were tested against inactivated state of Bruton's Tyrosine Kinase (Homo sapiens (Human), UniProt Q06187) (assay: Bruton's Tyrosine Kinase (BTK) Inhibition TR-FRET competition assay). Conditions: Kinase Tracer 178, incubated 18-24 h at 14° C.
Chain of inactivated state of Bruton's Tyrosine Kinase (Q06187 whole entry): as above
Assay type: binding
Text: Calculate percent activity from raw data in cpm percent activity=(sample−bkg)/(total activity−bkg)×100 Calculate IC50 from percent activity, using one-site dose response sigmoidal model y=A+((B−A)/(1+((x/C)^D)))) x=cmpd conc, y=% activity, A=min, B=max, C=IC50, D=1 (hill slope) Bruton's Tyrosine Kinase (BTK) Inhibition TR-FRET (Time Resolved FRET) Assay
This BTK competition assay measures compound potency (IC50) for the inactivated state of Bruton's Tyrosine Kinase using FRET (Förster/Flouresence Resonance Energy Transfer) technology. The BTK-Eu complex was incubated on ice one hour prior to use at a starting concentration of 50 nM BTK-Bioease™: 10 nM Eu-streptavidin (Perkin-Elmer Catalog# AD0062). The assay buffer consisted of 20 mM HEPES (pH 7.15), 0.1 mM DTT, 10 mM MgCl2, 0.5 mg/ml BSA with 3% Kinase Stabilizer (Fremont Biosolutions, Catalog # STB-K02). After 1 h, the reaction mixture from above was diluted 10 fold in assay buffer to make 5 nM BTK: 1 nM Eu-Streptavidin complex (donor fluorophore). 18 μl of a mixture of 0.11 nM BTK-Eu and 0.11 nM Kinase Tracer 178 (Invitrogen, Catalog # PV5593) with BTK-Eu alone as no negative control, was then dispensed into 384-well flat bottom plates (Greiner, 784076). Compounds to be tested in assay were prepared as 10× concentrations and serial dilution in half-log increments was performed in DMSO so as to generate 10 point curves. To initiate the FRET reaction, compounds prepared as 10× stock in DMSO was added to the plates and the plates were incubated 18-24 h at 14° C.
After the incubation the plates were read on a BMG Pherastar Fluorescent plate reader (or equivalent) and used to measure the emission energy from the europium donor fluorophore (620 nm emission) and the FRET (665 nm emission). The negative control well values were averaged to obtain the mean minimum. The positive “no inhibitor” control wells were averaged to obtain the mean maximum. Percent of maximal FRET was calculated using following equation: % max FRET=100×[(FSRcmpd−FSRmean min)/(FSRmean max−FSRmean min)] where FSR=FRET Signal ratio. % Max FRET curves were plotted in Activity Base (Excel) and the IC50(%), hill slope, z′ and % CV were determined. The mean IC50 and standard deviation will be derived from duplicate curves (singlet inhibition curves from two independent dilutions) using Microsoft Excel.

Going from `N#Cc1cccc(Oc2ccc(-n3ncc(C(=O)c4cc5ccc(CN6CCOCC6)cc5[nH]4)c3N)c(Cl)c2)c1` [Compound I-20, 3-{4-[5-Amino-4-(6-morpholin-4-ylmethyl-1H-indole-2-carbonyl)-pyrazol-1-yl]-3-chloro-phenoxy}-benzonitrile] to `N#Cc1cccc(Oc2ccc(-n3ncc(C(=O)c4cc5ccccc5[nH]4)c3N)c(Cl)c2)c1` [Compound I-16, 3-{4-[5-Amino-4-(1H-indole-2-carbonyl)-pyrazol-1-yl]-3-chloro-phenoxy}-benzonitrile], the IC50 rises from 1 nM to 82 nM (82-fold). The first is the more potent here.

`Nc1c(C(=O)c2cc3ccccc3[nH]2)cnn1-c1ccc(Oc2ccccc2)cc1O` [Compound I-10, [5-Amino-1-(2-hydroxy-4-phenoxy-phenyl)-1H-pyrazol-4-yl]-(1H-indol-2-yl)-methanone] and `COc1cc(Oc2ccccc2)ccc1-n1ncc(C(=O)c2cc3ccccc3[nH]2)c1N` [Compound I-9, [5-Amino-1-(2-methoxy-4-phenoxy-phenyl)-1H-pyrazol-4-yl]-(1H-indol-2-yl)-methanone] are within 1.5-fold of each other in IC50: 162 nM for the first, 146 nM for the second.

First: Cc1cc(Oc2cccc(F)c2F)ccc1-n1ncc(C(=O)c2nc3ccccc3[nH]2)c1N [Compound I-18, {5-Amino-1-[4-(2,3-difluoro-phenoxy)-2-methyl-phenyl]-1H-pyrazol-4-yl}-(1H-benzoimidazol-2-yl)-methanone]
Second: Cc1cc(Oc2cccc(F)c2F)ccc1-n1ncc(C(=O)c2cc3ccccc3[nH]2)c1N [Compound I-14, {5-Amino-1-[4-(2,3-difluoro-phenoxy)-2-methyl-phenyl]-1H-pyrazol-4-yl}-(1H-indol-2-yl)-methanone]
The IC50 of the first is 1.7-fold higher: 5 nM for the first, 3 nM for the second.

First: Cc1cc(Oc2ccccc2C#N)ccc1-n1ncc(C(=O)c2cc3ccccc3[nH]2)c1N [Compound I-15, 2-{4-[5-Amino-4-(1H-indole-2-carbonyl)-pyrazol-1-yl]-3-methyl-phenoxy}-benzonitrile]
Second: Nc1c(C(=O)c2cc3ccccc3[nH]2)cnn1-c1ccc(Oc2ccccc2)c(Cl)c1 [Compound I-5]
The IC50 of the first is 31-fold lower: 7 nM for the first, 216 nM for the second. The first is the more potent here.

First: Cc1cc(Oc2cccc(C(N)=O)c2)ccc1-n1ncc(C(=O)c2nc3ccccc3[nH]2)c1N [Compound I-17, 3-{4-[5-Amino-4-(1H-benzoimidazole-2-carbonyl)-pyrazol-1-yl]-3-methyl-phenoxy}-benzamide]
Second: Nc1c(C(=O)c2cc3ccccc3[nH]2)cnn1-c1ccc(Oc2ccc(F)c(F)c2)cc1 [Compound I-6, {5-Amino-1-[4-(3,4-difluoro-phenoxy)-phenyl]-1H-pyrazol-4-yl}-(1H-indol-2-yl)-methanone]
The IC50 of the first is 4.3-fold lower: 230 nM for the first, 1000 nM for the second.

`Nc1c(C(=O)c2cc3ccccc3[nH]2)cnn1-c1ccc(Oc2ccccc2)c(O)c1` [Compound I-8, [5-Amino-1-(3-hydroxy-4-phenoxy-phenyl)-1H-pyrazol-4-yl]-(1H-indol-2-yl)-methanone] and `Nc1c(C(=O)c2cc3ccccc3[nH]2)cnn1-c1ccc(Oc2ccccc2)c(F)c1` [Compound I-1, [5-Amino-1-(3-fluoro-4-phenoxy-phenyl)-1H-pyrazol-4-yl]-(1H-indol-2-yl)-methanone] are within 1.5-fold of each other in IC50: 59 nM for the first, 41 nM for the second.

`Nc1c(C(=O)c2cc3ccc(CN4CCOCC4)cc3[nH]2)cnn1-c1ccc(Oc2ccccc2)cc1` [Compound I-19, [5-Amino-1-(4-phenoxy-phenyl)-1H-pyrazol-4-yl]-(6-morpholin-4-ylmethyl-1H-indol-2-yl)-methanone] showed an IC50 of 0.5 nM.

`Nc1c(C(=O)c2cc3ccccc3[nH]2)cnn1-c1ccc(OC2CCCC2)cc1` [Compound I-12, [5-Amino-1-(4-cyclopentyloxy-phenyl)-1H-pyrazol-4-yl]-(1H-indol-2-yl)-methanone] and `CC(C)(C)COc1ccc(-n2ncc(C(=O)c3cc4ccccc4[nH]3)c2N)cc1` [Compound I-13, {5-Amino-1-[4-(2,2-dimethyl-propoxy)-phenyl]-1H-pyrazol-4-yl}-(1H-indol-2-yl)-methanone] cannot be ordered by FRET IC50: greater than 1000 nM for the first, greater than 1000 nM for the second.
